Results as given in article PMC12412044, “The Role of LVV‐H7 in Alcohol‐Induced Reward Mechanisms” (Addiction Biology, 2025).
“Also recorded” adds a separate entry of the source.

Tests used:
[1] = Blood–brain barrier permeability of fluorescently labelled compounds, fluorescence microscopy of brain sections; type: in vivo, rat; conditions: pepstatin conjugated with carboxyfluorescein and LVV-H7 tagged with Dansyl, given i.p. to rats; brain tissue sections, fluorescence microscopy 10×
Experimental: (§1) LVV‐H7 was dissolved in 0.9% NaCl and administered intraperitoneally (i.p.) 15 min before experiments at doses of 0.5 and 1 mg/kg. Control groups received 0.9% NaCl injections in an equivalent volume and by the same route. Pepstatin (Sigma‐Aldrich) was dissolved in 0.9% NaCl and administered i.p. at 10 mg/kg. Ethanol (95% w/v, Polmos; Poznan, Poland) was diluted with 0.9% NaCl to a 15% w/v concentration. In the CPP procedure, ethanol at doses of 1 or 1.5 g/kg (15% w/v) was administered i.p. before each conditioning phase.
The fluorescent analogue of pepstatin was synthesized on the Tentagel S RAM resin. At first, the Fmoc‐Lys (Mtt)‐OH was introduced using COMU/DIPEA, according to the procedure described above. To remove the Mtt group, the dried resin was treated with the TFE/HFIP/TIS/DCM mixture: 1:2:0.5:6.5 (v/v). Labelling with 5(6)‐carboxyfluorescein was performed with 5(6)‐carboxyfluorescein/HOBt/DIC in a molar ratio of 1:1:1. […] The high‐resolution MS characterized the probe, and preparative HPLC assessed its purity.
We investigated the ability of synthesized LVV‐H7 and pepstatin to cross the blood–brain barrier (BBB). […] Brain tissue samples from treated rats were then analysed using fluorescence microscopy.
FIGURE 3 Rat brain sections under visible light and fluorescence microscopy 10×: (a) pepstatin labelled with carboxyfluorescein, (b) LVV‐H7 labelled with Dansyl.

[2] = tested on: male Wistar rats; experiment: Ethanol conditioned place preference (CPP) test; type: in vivo, rat
Experimental: All conducted experiments used male Wistar rats (Experimental Medicine Center, Lublin, Poland) weighing 220 ± 20 g. The animals were housed under standard laboratory conditions (22°C, 12:12‐h light–dark cycle; light on at 8:00 AM) in groups of four rats per cage. The animals were allowed 7 days for acclimation before experiments with access to standard food (Bacutil; Motycz, Poland) and water ad libitum. After 7 days of adaptation and handling, the animals were divided into groups of 7–8 and prepared for the tests. Behavioural experiments were carried out according to the National Institute of Health Guidelines for the Care and Use of Laboratory Animals and the European Community Council Directive for Care and Use of Laboratory Animals (86/609/EEC). The Local Ethics Committee approved them. Additionally, we confirm that ARRIVE guidelines report the study.
as §1
In our experiments, eight identical rectangular CPP boxes (60 cm × 35 cm × 30 cm), each one composed of three compartments: two large compartments (25 cm × 35 cm) and a smaller central grey compartment (10 cm × 10 cm), were used. In one of the compartments, the inside walls were white, and the floor held a large grid, whereas the walls of the other compartment were painted black, and the floor held a narrow grid. Illumination in the testing room was adjusted so that the environmental (visual and tactile) cues would not produce a significant baseline preference for a specific compartment. Both large compartments were separated from a central grey area by the removable guillotine doors, the opening of which provided access to the larger compartments. The apparatus was thoroughly cleaned between each test procedure and then wiped with dry paper towels to neutralize odour traces. […] The CPP performance was measured by computerized video tracking.
The CPP paradigm was carried out according to an unbiased procedure with minor modifications. […] The time spent in each compartment was measured during the pre‐test phase. […]
During the second phase (pre‐conditioning test), 24 h after the habituation session, rats were placed in the central grey square compartment of the CPP apparatus with free access to all compartments for 15 min. The time spent in each compartment was recorded with a computer programme. […]

[3] = tested on: DARPP‐32; experiment: Western blot densitometry of DARPP‐32 expression in CNS structures after the CPP test; type: in vivo, rat; conditions: alcohol alone
Experimental: (§2) Brain structures and spinal cords isolated from the animals were homogenized in 50 μL of the buffer consisting of 50 mM Tris/HCl, pH 7.6 and 150 mM NaCl in the presence of a proteinase inhibitor cocktail (Roche). Cells were homogenized thrice on ice by sonication (5 s each). The homogenate was centrifuged at 25 000g for 30 min at 4°C. The final protein concentration in the supernatant was determined using a Bradford assay kit (Sigma‐Aldrich).
(§3) One‐dimensional polyacrylamide gel electrophoresis was performed after standardizing the samples according to their total protein concentration. Thirty microlitres of the Laemmli sample buffer (Bio‐Rad, USA) were added to the subsequent volume of each sample, followed by incubation for 5 min at 90°C in a Thermomixer (Eppendorf). According to the Bio‐Rad protocol, proteins were separated on the 10% SDS‐PAGE.
(§4) Mini Protean system and electrotransferred onto the PVDF membrane (Bio‐Rad, USA). The adequate antibodies confirmed the presence of proteins (Biorbyt, UK). […]
(§5) Protein expression levels were measured using standard Western blotting. SDS‐PAGE was performed after standardizing protein extracts based on total protein concentration (determined via the Bradford method), immunotransfer, and immunodetection. Densitometric analysis was conducted to quantify protein levels in all structures from five animals. […]

[4] = tested on: μ‐opioid receptor (OPRM1); experiment: Western blot densitometry of OPRM1 expression in CNS structures after the CPP test; type: in vivo, rat; conditions: ethanol alone versus control
Experimental: as §2, §3, §4, §5

[5] = tested on: NMDA receptor (NMDAR1); experiment: Western blot densitometry of NMDA receptor expression in CNS structures after the CPP test; type: in vivo, rat; conditions: ethanol alone versus control
Experimental: as §2, §3, §4, §5

Molecule | ability to cross the blood–brain barrier (BBB) [1] | enzyme involved in the production of fragment VV-H7 (proteins identified in active Fraction 29 of spinal cord homogenate, nanoLC-MALDI-MS/MS) | degradation products of LVV-H7 after incubation with homogenates (rat spinal cord homogenate, DEAE fractions, LVV-hemorphin 60 μg/mL, 10 μL in 40 μL, Tris–HCl pH 7.4, 37°C, 1 h, read-out mass spectrometry) | expression of ethanol-CPP after pepstatin pretreatment ([2]; pepstatin 10 mg/kg i.p. 5 min before each ethanol injection (1.5 g/kg, 15% w/v, i.p.) during 10-day conditioning, p < 0.001) | time spent in the drug-associated compartment, pepstatin given alone ([2]; pepstatin 10 mg/kg i.p. before each conditioning session, no ethanol, versus 0.9% NaCl) | DARPP-32 expression after alcohol administration [3] | time spent in the drug-associated compartment on the CPP test day ([2]; ethanol 1.0 g/kg i.p., 10-day conditioning, versus 0.9% NaCl group) | time spent in the drug-paired compartment on the CPP test day (expression of ethanol-induced CPP) ([2]; ethanol 1.5 g/kg (15% w/v) i.p., 10-day conditioning, versus 0.9% NaCl group) | OPRM1 expression following EtOH administration [4] | NMDA receptor expression following EtOH administration [5]
CC(C)C[C@H](N)C(=O)N[C@H](C(=O)N[C@H](C(=O)N[C@@H](Cc1ccc(O)cc1)C(=O)N1CCC[C@H]1C(=O)N[C@@H](Cc1c[nH]c2ccccc12)C(=O)N[C@H](C(=O)N[C@@H](CCC(N)=O)C(=O)N[C@@H](CCCNC(=N)N)C(=O)N[C@@H](Cc1ccccc1)C(=O)O)[C@@H](C)O)C(C)C)C(C)C [LVV‐H7, LVV‐hemorphin‐7] | successfully cross the BBB | puromycin‐sensitive aminopeptidase (PSA) | VVYPWTQRF, YPWTQRF, PWTQRF and LVVYPWTQR fragments were mainly revealed | – | – | – | – | – | – | –
pepstatin | successfully cross the BBB | – | – | significantly blocked the expression of ethanol‐CPP | did not change the time spent | – | – | – | – | –
CCO [ethanol] | – | – | – | – | – | upregulation | did not change the time spent; also recorded: did not evoke any rewarding effects | spent significantly more time | statistically significant upregulation | statistically significant upregulation
